Measured values: US20260183297A1, “SELECTION OF PATIENTS FOR THE TREATMENT OF FADS1-MEDIATED DISEASES OR DISORDERS USING FADS-1 INHIBITORS” (AMGEN INC., priority 2022, published 2026)

Key:
FADS1 = molecular target: T1, FADS1 (Mus musculus, UniProt Q920L1); experiment: In vivo FADS1 activity measurement using blood plasma (13C5-DGLA to 13C5-AA conversion); conditions: DIO mice, 24 hours after dosing
T1 construct: Liver from ^13C5-DGLA dosed DIO mice was collected for pharmacodynamic (PD) analysis; from tissue; host or cells: living DIO C57Bl/6 mice; 13C5-DGLA to 13C5-AA conversion read in liver (A4) or blood plasma (A5)
T1 sequence (Q920L1 1-447): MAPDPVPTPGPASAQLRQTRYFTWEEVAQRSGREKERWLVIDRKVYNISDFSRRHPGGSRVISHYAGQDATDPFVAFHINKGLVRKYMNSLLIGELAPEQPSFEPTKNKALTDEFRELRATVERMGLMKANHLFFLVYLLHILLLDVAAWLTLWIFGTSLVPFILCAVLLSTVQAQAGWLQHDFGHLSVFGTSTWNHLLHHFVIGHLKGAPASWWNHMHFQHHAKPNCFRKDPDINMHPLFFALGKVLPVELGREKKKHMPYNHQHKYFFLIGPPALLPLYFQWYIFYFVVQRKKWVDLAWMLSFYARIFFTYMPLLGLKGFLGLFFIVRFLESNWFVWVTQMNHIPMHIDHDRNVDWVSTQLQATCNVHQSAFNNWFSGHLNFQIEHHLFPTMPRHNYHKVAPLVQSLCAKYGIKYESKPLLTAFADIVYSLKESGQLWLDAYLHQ
Procedure: FADS1 activity in the presence of Compounds B-E was also measured using blood plasma (in addition to using the liver). The above procedures were perforned to measure the in vivo activity of FADS1 using the liver. The following general procedures were used to measure FADS1 activity using blood plasma. Diet-induced obese (DIO) mice that were on 12 weeks of high fat diet were used to determine the pharmacokinetic (PK) and pharmacodynamic (PD) properties of test compounds. To determine the target coverage at 24 hours after dosing with a test compound (e.g., Compounds B-E, shown below), mice were IP dosed with 0.1 ml solution of ^13C5-DGLA (2 mM in 18.42 mM Na2CO3 buffer). Necropsy were performed at 30 minutes post ^13C5-DGLA dosing. EDTA Plasma was collected for PK and PD analysis.
For PD analysis, 50 μl of plasma or standards (pooled untreated mouse plasma with ^13C5-DGLA and ^13C5-AA added at concentration of 4.57 nM to 10 uM) were mixed with 10 μl of 90% methanol and 10 μl of 50 μg/mL of ALA-D14 as an internal standard (100 μM alpha-linolenic acid-d14 (ALA-d14, Cayman Chemical)) in a 96 well plate. 490 μl of chloroform:methanol (2:1) were added to each well. Plates were plated on a shaker for 5 min prior to adding 66.5 μl water. The plates were shaken for another 5 minutes, followed by centrifugation at 2000 RPM for 5 minutes. The bottom organic layer was transferred to a clean 96 well plate. 333 ul of chloroform:methanol (2:1) were added to the to the remaining liquid phase in the original plate. After 5 min of shaking, the plate was centrifuged at 2000 RPM for 5 minutes. The bottom layer was collected and combined with the first bottom layer. The combined layers were evaporated to dryness under a constant stream of nitrogen gas. After the plate has been dried, 100 μl of 2N NaOH was added to the mixture for subsequent saponification at 65° C. for 1 hour. The samples were then cooled to room temperature and the mixture was then acidified with 50 μl of formic acid followed by two consecutive chloroform:methanol (2:1) extractions. 500 μl of Chloroform:methanol (2:1) was added and the mixture thoroughly mixed by shaking. The plate was then centrifuged at 2,000 rpm for 5 min. The bottom chloroform phase was transferred to a new 2 mL 96 well plate and the remaining aqueous layer was extracted with another 250 μl of chloroform:methanol (2:1). The organic extracts were combined, and the solvent was evaporated to dryness by placing the plate under nitrogen. Extracts were then dissolved in 200 μl of acetonitrile/methanol (1:1). The plate was placed on a shaker for 30 minutes to ensure thorough mixing and dissolution of the extracted fatty acids. The plate was then centrifuged at 2000 RPM for 5 minutes. 80 μl of the samples were transferred to a new 96 well polypropylene plate for analysis on a LC-MS/MS for the following analytes: ^13C5-DGLA, ^13C5-AA, with ALA-d14 as the internal standard. Briefly describing the LC-MS/MS method: 20 μl of sample was injected onto a Poroshell 120 EC-C18 3.0×50 mm, 1.9 μm id column. Mobile phases were 80% acetonitrile containing 5 mM ammonium acetate for mobile phase A and 99.5% acetonitrile containing 5 mM ammonium acetate for mobile phase B. The LC gradient was a 3 min long method at a flow rate of 0.4 mL/minute consisting of 45% B at 0 to 0.5 min, followed by a 45% B to 100% B from 0.5 to 2.0 min; the system was then maintained at 100% B from 2.0 min to 2.5 min and returned to 45% B at 2.6 min and maintained until end of the method. The analyte peak areas were quantified by using the SCIEX Analyst software. To determine the degree of FADS1 inhibition, the in vivo FADS1 activity, POC, percent of inhibition, and in vivo IC50 values are calculated as described above for liver FADS1 activity measurement.

[1] = Biomarker analysis of tissue and plasma samples (Luminex: adiponectin, leptin, PAI-1, MCP-1); format: in vivo, mouse; conditions: DIO mice, 30 mg/kg
Procedure: Frozen liver and adipose tissue samples were powdered with stainless steel Bessman Tissue Pulverizers (Spectrum Laboratory Products, Gardena, CA) per the manufacturer's instructions and the resulting tissue powders were stored in cryotubes at −80° C. until extraction. A portion of each powdered tissue sample was extracted using an in-house protein extraction buffer (50-mM Tris buffer, pH 7.4, 0.1 M NaCl and 0.1% Triton X-100) containing a protease inhibitor cocktail (Millipore Sigma, Burlington, MA). Samples were homogenized with a MagNA Lyser (Roche Diagnostics, Indianapolis, IN) for 30 seconds at 6500 rpm, placed at 4° C. for 30 minutes and then spun in a refrigerated microcentrifuge at 10,000 rpm for 10 minutes. The resulting supernatants were removed to clean 1.5 ml microfuge tubes and spun again at 14,000 rpm for 15 minutes. The final supernatants were aliquoted into labeled cluster tubes and protein concentrations were determined using a standard BCA Protein Assay (Thermo Fisher Scientific, Waltham, MA) prior to storage at −80° C.
Separate aliquots of tissue protein extracts and terminal plasma samples were used to quantify levels of various analytes. Multiple adipokines and hormones (MCP-1, leptin, insulin, and PAI-1) were assessed using a multiplex mouse-specific Luminex assay while adiponectin was evaluated using a single-plex mouse-specific Luminex assay (Millipore Sigma, Burlington, MA). All the commercial assays were performed per the manufacturer's instructions. Data were acquired on a FlexMap 3D (Luminex Corporation, Austin. TX). Tissue protein expression levels were normalized per mg of total protein.

[2] = mouse, single oral dose 10 mg/kg
[3] = mouse, single oral dose 30 mg/kg

COc1ccn2c(=O)c(-c3cnn(CC(F)(F)C(F)(F)F)c3)c(C(F)(F)F)nc2n1 [Compound B]
Plasma Avg % Conversion (FADS1; single oral dose 10 mg/kg): 2.9% | Plasma Avg % Conversion (FADS1; single oral dose 30 mg/kg): 2.2% | Plasma Avg % Conversion (FADS1; single oral dose 50 mg/kg): 1.9% | inhibition at 10 mg/kg (FADS1; [2]): 95.2% | inhibition at 30 mg/kg (FADS1; [3]): 96.3% | inhibition at 50 mg/kg (FADS1; mouse, single oral dose 50 mg/kg): 96.9%

N#Cc1ccn2c(=O)c(-c3cnn(CC(F)(F)C(F)(F)F)c3)c(C(F)(F)F)nc2c1 [Compound C]
Plasma Avg % Conversion (FADS1; single oral dose 3 mg/kg): 10.1% | Plasma Avg % Conversion (FADS1; single oral dose 10 mg/kg): 4.3% | Plasma Avg % Conversion (FADS1; single oral dose 30 mg/kg): 1.7% | inhibition at 3 mg/kg (FADS1; mouse, single oral dose 3 mg/kg): 83.3% | inhibition at 10 mg/kg (FADS1; [2]): 92.8% | inhibition at 30 mg/kg (FADS1; [3]): 97.1%

COc1ccn2c(=O)c(-c3cnn(CC(F)(F)C(F)(F)F)c3)c(C(F)(F)F)nc2c1 [Compound A, 8-methoxy-3-(1-(2,2,3,3,3-pentafluoropropyl)-1H-pyrazol-4-yl)-2-(trifluoromethyl)-4H-pyrido[1,2-a]pyrimidin-4-one]
adiponectin levels ([1]; EPI WAT): elevated | MCP-1 levels ([1]; EPI and ING WAT): trends towards lower | PAI-1 levels ([1]; EPI and ING WAT): trends towards lower | leptin levels ([1]; plasma, EPI and ING WAT): decreased
